Reference: patent publication US11607396B2, “Bicyclic amide compounds and methods of use thereof” (Genentech, Inc., priority 2016, dated 2023)
pKi: −log10 of the molar value.

Target: human RIP1 kinase domain (2-375) (Homo sapiens (Human), UniProt Q13546)
Assay: RIP1 kinase inhibition biochemical assay (Transcreener ADP, fluorescence polarization)
Settings: apparent Ki (Kiapp, Morrison tight-binding fit); 50 nM enzyme, 50 uM ATP, 2 hours incubation
Method: RIP1 Kinase Inhibition Assays (Biochemical Assay):
The compounds of the present invention were tested for their capacity to inhibit RIP IK activity as described below.
Enzyme assay: The ability of the receptor interacting protein kinase (RIPK1) to catalyze the hydrolysis of adenosine-5′-triphosphate (ATP) is monitored using the Transcreener ADP (adenosine-5′-diphosphate) assay (BellBrook Labs). Purified human RIP1 kinase domain (2-375) (50 nM) derived from a baculovirus-infected insect cell expression system is incubated with test compounds for 2 hours in 50 mM Hepes buffer (pH 7.5) containing 30 mM MgCl2, 1 mM dithiothreitol, 50 uM ATP, 0.002% Brij-35, and 0.5% dimethyl sulfoxide (DMSO). Reactions are quenched by the addition of IX Bell Brooks Stop buffer B (20 mM Hepes (ph7.5), 40 mM ethylenediaminetetraacetic acid and 0.02% Brij-35) containing an additional 12 mM EDTA and 55 ug/mL ADP2 antibody and 4 nM ADP-AlexaFluor® 633 tracer. The tracer bound to the antibody is displaced by the ADP generated during the RIP IK reaction, which causes a decrease in fluorescence polarization that is measured by laser excitation at 633 nm with a FP microplate reader M1000. Fractional activity was plotted against test article concentration. […]

human RIP1 kinase domain (2-375), sequence (Q13546 2-375): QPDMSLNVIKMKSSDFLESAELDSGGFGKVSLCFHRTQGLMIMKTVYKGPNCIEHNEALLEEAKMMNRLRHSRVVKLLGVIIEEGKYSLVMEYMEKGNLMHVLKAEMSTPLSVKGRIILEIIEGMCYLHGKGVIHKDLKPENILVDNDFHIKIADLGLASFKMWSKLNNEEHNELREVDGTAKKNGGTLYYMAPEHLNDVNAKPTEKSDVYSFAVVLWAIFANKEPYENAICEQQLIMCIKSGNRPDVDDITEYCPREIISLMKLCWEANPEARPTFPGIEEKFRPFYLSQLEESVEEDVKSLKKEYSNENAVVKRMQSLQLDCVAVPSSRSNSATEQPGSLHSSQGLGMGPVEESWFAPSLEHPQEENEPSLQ

| pKi | Structure (SMILES) |
| --- | --- |
| 8.40 | O=C(c1nc2n(n1)[C@H](c1ccccc1)C[C@@H]2F)N1CC(F)(F)C1 (single isomer, unassigned) [Example 36] |
| 6.63 | O=C(c1nc2n(n1)CCC2c1ccccc1F)N1CC(F)(F)C1 (racemic) [Example 14, (3,3-difluoroazetidin-1-yl)-[7-(2-fluorophenyl)-6,7-dihydro-5H-pyrrolo[1,2-b][1,2,4]triazol-2-yl]methanone] |
